# Read-outs that look alike come from different tables or passages of the source.
# System: SARS-CoV-2
# Format: cell-based
# Conditions: for LRV (log reduction value), reduction of virus compared to the virus control / Virus Titer: solution at 90%
# [1] = incubation 15 seconds at 37° C.
# [2] = incubation 15 minutes at 37° C.
structure (smiles),measurement,setting,value
CCO [Ethanol],"LRV (log reduction value), reduction of virus compared to the virus control",[1],4.3
same,Virus Titer,[1],0.67 Log10 CCID50 of virus per mL
same,"LRV (log reduction value), reduction of virus compared to the virus control",incubation 5 minutes at 37° C.,>4.3
same,Virus Titer,incubation 5 minutes at 37° C.,<0.67 Log10 CCID50 of virus per mL
same,"LRV (log reduction value), reduction of virus compared to the virus control",[2],>4.3
same,Virus Titer,[2],<0.67 Log10 CCID50 of virus per mL
same,virus titer (baseline reached),"positive control, contact time not given",0.67 log10 CCID50/ml
